# Results: publication PMC9811213, “Glutamine deamidation does not increase the immunogenicity of C-peptide in people with type 1 diabetes” (Journal of Translational Autoimmunity, 2022)
# Experiments:
# [1] = test system: CD4+ T cells in PBMC from people with recent onset T1D; assay: CFSE-based proliferation assay, PBMC of people with T1D; type: cell-based, human; settings: CFSE-labelled PBMC, peptide 10 μM, mean CDI
# Procedure: (§1) Blood was obtained by venepuncture. Peripheral blood mononuclear cells (PBMC) were isolated over Ficoll-paque (GE Healthcare) and washed twice in phosphate buffered saline (PBS) as described. The CFSE (5,6-carboxyfluorescein diacetate succinimidyl ester) proliferation assays were performed as described previously. CFSE-labelled PBMC were cultured with either: no antigen, full-length C-peptide (^PI33-63), or ^PI33-63 Q38E (referred to as Q6E), ^PI33-63 Q41E (referred to as Q9E), ^PI33-63 Q54E, (referred to as Q22E) ^PI33-63 Q63E (referred to as Q31E), or ^PI33-63 with all glutamines substituted for glutamic acid, (referred to as QallE). See Supplementary Table 5 for a detailed description of the peptides. Each peptide was used at a final concentration of 10 μM. Positive controls were tetanus toxoid (TT 10LfU/ml, Statens Serum Institut) and/or anti-CD3 (OKT3 10 ng/ml). The results are presented as a cell division index (CDI), the ratio of the number of CD4^+ T cells that have proliferated in the presence of antigen to the number of CD4^+ T cells that have proliferated in the absence of antigen.
# (§2) Our analysis of CD4^+ Jurkat lines expressing TCRs derived from primary CD4^+ T cells used TCRs derived from CD4^+ T cells that were selected for their specificity for WT C-peptide. […] This may be due to Q to E substitutions being poorly tolerated by the TCRs that were selected based on their recognition of WT C-peptide. To address this, we measured polyclonal CD4^+ T-cell responses in PBMC from people with recent onset type 1 diabetes. (see Supplementary Tables 5 and 6 for details of each subject). […] Next, in a separate cohort we investigated CD4^+ T-cell responses to the five C-peptide variants with individual Q to E substitutions in PBMC of people with recent onset type 1 diabetes (Fig. 3B). We found, as expected, that a majority of PBMC samples responded to WT C-peptide, but responses to Q to E substituted C-peptide variants were not stronger, in fact in most cases they were weaker, than responses to WT C-peptide. (See Supplementary Tables 7–9 for results from individual subjects). Finally, we asked if people without T1D, but who carried the T1D-associated HLA alleles, HLA-DQ2, or HLA-DQ8 had stronger responses to Q to E substituted C-peptide variants (Fig. 3C). Here few subjects had response to WT C-peptide and only a minority had greater responses to Q to E substituted variants of C-peptide, compared to WT C-peptide.
# (§3) Fig. 3 PBMC responses to WT and deamidated C-peptide variants. (A) Proliferation in responses, measured as a cell division index (CDI) to WT or QallE C-peptide were compared in 8 PBMC from 8 people with recent onset T1D. Responses from the same individual are linked. […] (B) PBMC proliferation responses to WT and C-peptide variants with individual Q to E substitution and QallE from people with recent onset T1D (B) and HLA matched control subjects who don't have T1D (C). Only difference which reached statistical significance are marked (* = P < 0.05). For responses in subjects without T1D, none of the differences between groups reached statistical significance, p > 0.05, by Wilcoxon matched pairs signed rank test of Log 10 transformed CDI data. Each point is a different individual, bars show the mean and the standard deviation for each group.
# [2] = test system: CD4+ T cells in PBMC from subjects without T1D; assay: CFSE-based proliferation assay, PBMC of subjects without T1D; type: cell-based, human; settings: CFSE-labelled PBMC, peptide 10 μM, mean CDI
# Procedure: as §1, §2, §3
Sequence,Cell division index (CDI) ([1]; T1D donor 9),Cell division index (CDI) ([1]; T1D donor 10),Cell division index (CDI) ([1]; T1D donor 11),Cell division index (CDI) ([1]; T1D donor 12),Cell division index (CDI) ([1]; T1D donor 13),Cell division index (CDI) ([1]; T1D donor 14),Cell division index (CDI) ([1]; T1D donor 15),Cell division index (CDI) ([1]; T1D donor 16),Cell division index (CDI) ([1]; T1D donor 17),Cell division index (CDI) ([1]; T1D donor 18),Cell division index (CDI) ([2]; donor 1 without T1D),Cell division index (CDI) ([2]; donor 2 without T1D),Cell division index (CDI) ([2]; donor 3 without T1D),Cell division index (CDI) ([2]; donor 4 without T1D),Cell division index (CDI) ([2]; donor 5 without T1D),Cell division index (CDI) ([2]; donor 6 without T1D)
"EAEDLEVGQVELGGGPGAGSLQPLALEGSLQ [Q6E, C-peptide variant with glutamine 6 substituted for glutamic acid]",1.0,2.9,0.9,3.4,1.4,1.0,3.6,2.4,8.5,0.0,1.0,2.6,2.1,0.8,62.1,5.5
"EAEDLQVGQVELGGGPGAGSLEPLALEGSLQ [Q22E, C-peptide variant with glutamine 22 substituted for glutamic acid]",2.1,2.3,0.8,36.3,54.8,2.6,8.9,3.2,1.5,2.4,1.3,1.1,0.9,1.7,1.8,2.4
